Assay results taken from PubChem BioAssay AID730 (The Scripps Research Institute Molecular Screening Center, 2007).
Calls of active or inactive are those of the source.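 How the source made its calls: active means EC50 at or below 10 micromolar, taken from the curve fit or judged by hand from the single doses; inactive means EC50 above 10 micromolar.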

The compounds below were run against CHO S1P3/Ga15 NFAT-beta-lactamase reporter, FRET fluorescence (assay: S1P3 reporter-cell activation, dose response, counter-screen for 5HT1E agonist project (AID 730)).

**Q.** CN1CCN(/C(=N\O)c2nonc2N)CC1 was tested. Which EC50 did it give?
**A.** The EC50 was > 40 µM (inactive).

**Q.** With CCOC(=O)C1=C(C)NC(=O)NC1c1ccc(OCC(=O)Nc2ccccc2)c(OC)c1 (stereo not drawn) as the compound, how does the EC50 read?
**A.** The EC50 was > 40 µM (inactive).

**Q.** For Cn1cc(/C(Cc2ccccc2)=N\O)c2ccccc21, which EC50 is on record?
**A.** The EC50 was > 40 µM (inactive).
